Patent EP2155158B1, “PERSONAL LUBRICANT COMPOSITION” (LRC Products Limited, priority 2007, dated 2008)
Where two headings read alike, the source gives them in different places.

Columns and labels:
[1] = Cooling strength of coolants relative to menthol; details: menthol = 100
Text: N-ethyl-p-menthane-3-carboxamide has, to date, primarily been used in oral, medicinal and confectionary products, such as breath freshening chewing gums. […]

[2] = Crystallisation / clouding at low temperatures; format: physicochemical
[3] = Volatility compared with menthol; format: physicochemical

C=C(C)C1CCC(C)CC1O (stereo not shown) [Isopulegol, 2-isopropenyl-5-methyl-cyclohexanol]
Cooling strength relative to menthol [1]: 25

CC1CCC(C(C)C)C(O)C1 (stereo not shown) [Menthol]
Cooling strength relative to menthol [1]: 100
loss of coolant on storage (reduction in the level of retained coolant) (personal lubricant formulation, 2190 h): about 50%

CC1CCC(C(C)C)C(OC(=O)C(C)O)C1 (stereo not shown) [Menthyl lactate]
Cooling strength relative to menthol [1]: 43

CCNC(=O)C1CC(C)CCC1C(C)C (stereo not shown) [WS-3, N-ethyl-p-menthane-3-carboxamide]
crystallisation at low temperatures [2]: does not crystallise at low temperatures
Cooling strength relative to menthol [1]: 150
loss of coolant on storage (reduction in the level of retained coolant) (in personal lubricant formulation, storage for 3 months at 40°C): no loss
volatility [3]: lower volatility than menthol

CNC(=O)C(C)(C(C)C)C(C)C [WS-23]
Cooling strength relative to menthol [1]: 75

Menthone lactate
Cooling strength relative to menthol [1]: 41
